Reference: US7759399B2, “Pharmaceutical compositions” (priority 2002, dated 2010)
Where two headings read alike, the source gives them in different places.

Columns and labels:
NF-κB [1] = experiment: EMSA of NF-κB DNA-binding activity in TPA-stimulated Jurkat T cells; assay type: cell-based, Human; conditions: Jurkat T cells treated 1 hour, then TPA 25 ng/ml, extracts after 3 hours; FIGS. 1(b)-6(b)
Protocol: Methods: Human lymphoblastoid Jurkat T cells were grown at 37° C. in a 5% CO2 atmosphere in RPM1 1640 medium (GIBCO BRL, Gaithersburg, Md.) supplemented with 10% fetal calf serum (FCS, Hyclone Europe Ltd, UK) 2 mM glutamine and antibiotics according to the method described by A. Rossi et al. (Proc. Natl. Acad. Sci. USA 94: 746-750, 1997). The test compounds were stored as a 100% ethanolic stock solution (100 mM) or in DMSO (100 mM) and diluted to the appropriate concentration in culture medium at the time of use. Cells were treated with different concentrations of test compound for 1 hour and then stimulated with 12-O-tetradecanoylphorbol-13-acetate (TPA, 25 ng/ml), which is a strong inducer of NF-κB. Control cells received an equal amount of control diluent. After 3 hours whole-cell extracts were prepared and subjected to analysis of DNA-binding activity by EMSA (Electrophoretic Mobility Shift Assay) for detection of HSF or NF-κB activation, according to the method described by A. Rossi et al. (Proc. Natl. Acad. Sci. USA 94: 746-750, 1997).
Specificity of protein-DNA complexes was verified by immunoreactivity with polyclonal antibodies specific for p65 (Rel A) or for HSF-1, for NF-κB and HSF respectively. Quantitative evaluation of NF-κB and HSF-DNA complex formation was determined by Molecular Dynamics Phosphorimager (MDP) analysis and was expressed in arbitrary units, as described in A. Rossi et al. (J. Biol. Chem. 273: 16446-16452, 1998). The results from representative experiments are shown in FIGS. 1(b), 2(b), 3(b), 4(b), 5 and 6(b) for compounds CTM-50, CTM-49, CTM-36, CTM-30, CTC-130 and CTC-109, as identified above.

Sendai virus = Sendai virus replication in 37RC cells (virus yield by HAU titration); assay type: cell-based; conditions: Respirovirus muris, 5 HAU/10^5 cells, virus yield at 24 hours after infection, read-out: ID50 (50% inhibitory dose/concentration), Sendai virus yield
uninfected 37RC cells [2] = conditions: monkey
uninfected 37RC cells [3] = experiment: Toxicity to uninfected cells, determined visually by microscopy (TD100)
HSF = HSF luciferase reporter assay, HeLa cell clone 13B (human hsp70 promoter); assay type: cell-based; conditions: 8 h, HeLa clone 13B, 8 h treatment, serum-free medium, read-out: HSF, AC200 (concentration at which the compound doubled the HSF activity)
Protocol: (§1) Method: HeLa cell clone 13B, stably transfected with a luciferase reporter plasmid controlled by the human hsp70 promoter, and HeLa κB-transformed cells, stably transfected with a luciferase reporter plasmid controlled by a synthetic NF-κB-STM construct, were maintained in DMEM medium supplemented with 10% FBS, L-glutamine (2 mM) and G418 (250 μg/ml) at 37° C. in a 5% CO2 humidified atmosphere.
(§2) Cells were seeded at a density of 4×10^4 cells/well in 96-well plates. After 18-20 h, the medium was removed and cells were treated for 8 h with the test compounds (100 μl) at the appropriate dilutions in serum-free medium. For the NF-κB-dependent reporter gene assay, cells were stimulated with TPA (25 ng/ml) 2 h after exposure to the compounds.
(§3) After incubation, the medium was removed and cells were lysed in 10 μl of lysis buffer. The luciferase activity was determined by adding 100 μl of substrate and measuring the release of light using a Victor 1420 microplate reader (Wallac, Finland).
(§4) The AC200/μM for HSF is the concentration at which the tested compound doubled the HSF activity in this assay. The IC50/μM for NF-κB is the concentration at which the tested compound halved the NF-κB activity in this assay.

in vitro = assay type: cell-based; conditions: 37RC cells, 24 h treatment; read-out: LC50 (50% lethal dose/concentration), Neutral Red
Protocol: Cell viability was determined using the Neutral Red assay. 37RC cells were seeded at density of 6×10^4 cells/well in 24-well plates and incubated for 24 h. Confluent 37RC monolayers were treated with the test compounds at different dilutions for 24 h at 37° C. After incubation, the medium was removed and the cells were incubated with RPMI medium containing 40 μg/ml Neutral Red dye (500 μl/well). After 2 h at 37° C., the monolayers were washed with phosphate-buffered saline (PBS) and then with a solution containing 1% CaCl2 and 0.5% formaldehyde. After washing, a solution containing 1% acetic acid/50% ethanol was added to the monolayers (250 μl/well). After 10 min at room temperature, the absorbance was determined with a microplate reader (Victor 1420, Wallac) at 540 nm.

NF-κB [4] = experiment: NF-κB-dependent luciferase reporter gene assay, HeLa κB-transformed cells, TPA stimulated; assay type: cell-based; conditions: Homo sapiens, HeLa, 8 h treatment, TPA 25 ng/ml 2 h after exposure, read-out: NF-κB, IC50 (concentration at which the compound halved the NF-κB activity)
Protocol: as §1, §2, §3
The fragment Kpn I-BamH I from the pGL3 basic vector containing the luciferase gene (PROMEGA) was inserted in the pcDNA3 vector (INVITROGEN) digested with Bgl II-KpnI. (This digestion removes the CMV-promoter from pcDNA3.) The resulting new vector was digested with Kpn I-Hind III and a promoter containing a ‘5xNF-κB binding sites—TATA box’ sequence was inserted upstream of the luciferase gene. This vector has been named STM.
To obtain stable HeLa cell lines expressing the luciferase gene under the control of NF-κB, HeLa cells were transfected (using lipofectamine plus GIBCO) with the STM-Pvu I linearized vector, and selected for 20 days with G418 (800 μg/ml). After selection, the resistant HeLa cell pool was controlled (in quadruplicate samples) for luciferase activity after stimulation with TNFα, IL-1 and TPA.
as §4

[5] = Alamar Blue cytotoxicity assay; assay type: cell-based; conditions: human
Protocol: HeLa cells were plated in 96-well microtiter plates in 100 μl culture medium (4×10^4/well). After 20 hours, the cells were exposed to the test compounds at different dilutions and incubated for the next 8 h at 37° C. in a 5% CO2 humidified atmosphere. After 6 h incubation, the Alamar Blue was added in an amount equal to 10% of the culture volume (10 μl). Two hours after the addition of the Alamar Blue, the fluorescence was measured using a Victor 1420 microplate reader.
The LC50/μM is the concentration at which the tested compound killed half the cells in this assay.

Row | Compound | NF-κB-DNA complex formation (EMSA), result in words (NF-κB [1]) | IC50 (Sendai virus; 24 h) [µM] | TD100 (dose or concentration at which the compound was 100% toxic to uninfected cells) (uninfected 37RC cells [2]) [µM] | TD100 (dose or concentration at which the compound was 100% toxic to uninfected cells) (uninfected 37RC cells [3]) [µM] | EC (2-fold) (HSF) [µM] | CC50 at 24 h (in vitro) [µM] | IC50 (NF-κB [4]) [µM] | IC50 (Sendai virus) [µM] | CC50 at 8 h [5] [µM]
1 | COC(=O)[C@H](CSC1CCC(=O)C1)NC(=O)OC(C)(C)C (some centres unmarked) [CTM-49] | inhibitors of NF-κB | 20 | >500 | – | – | – | – | – | –
2 | CC(C)(C)[Si](C)(C)O[C@H]1CC(=O)C[C@@H]1Sc1ccccn1 [CTM-86] | – | – | – | 10 | 20 | 7 | 36 | 2 | 96
3 | COC(=O)c1ccccc1S[C@H]1CC(=O)C[C@@H]1O[Si](C)(C)C(C)(C)C [CTM-82] | – | – | – | 50 | 35 | 16 | 54 | 1 | > 800
4 | COC(=O)[C@H](CSC1C=C(C(SC[C@H](NC(=O)OC(C)(C)C)C(=O)OC)C(C)C)C(=O)C1)NC(=O)OC(C)(C)C (some centres unmarked) [CTC-130] | inhibitors of NF-κB | – | – | – | – | – | – | – | –
5 | CC(C)(C)[Si](C)(C)O[C@H]1CC(=O)C[C@@H]1SCCS(=O)(=O)O [CTM-165] | – | – | – | 50 | 26 | 21 | 50 | 1 | > 800
6 | Cc1ccc(S[C@H]2CC(=O)C[C@@H]2O[Si](C)(C)C(C)(C)C)cc1 [CTM-80] | – | – | – | 50 | 60 | 16 | > 100 | 1 | > 800
7 | CC(C)(C)[Si](C)(C)O[C@H]1CC(=O)C[C@@H]1Sc1ccc(F)cc1 [CTM-108] | – | – | – | 50 | 13 | 29 | > 100 | 4 | > 800
8 | CC(C)(C)[Si](C)(C)O[C@H]1CC(=O)C[C@@H]1Sc1ccncc1 [CTM-132] | – | – | – | 10 | 13 | 2.6 | 33 | 0.2 | 220
9 | CC(C)(C)[Si](C)(C)O[C@H]1CC(=O)C[C@@H]1Sc1ncccn1 [CTM-84] | – | – | – | 10 | 28 | 6.3 | 28 | 1 | 556
10 | CC(S[C@H]1CC(=O)C[C@@H]1O[Si](C)(C)C(C)(C)C)C(=O)NCC(=O)O (some centres unmarked) [CTM-110] | – | – | – | 50 | 27 | 18 | > 100 | 1 | > 800
11 | Cc1cc(C)n(CCS[C@H]2CC(=O)C[C@@H]2O[Si](C)(C)C(C)(C)C)n1 [CTM-109] | – | – | – | 50 | 29 | 33 | > 100 | 4 | 267
12 | CC(C)(C)C(=O)OC1[C@H](Sc2ccc3ccccc3c2)CC(=O)C1(C)C (stereo in doubt) [CTM-193, 2,2-dimethylpropionic acid (1S,5R)-2,2-dimethyl-5-(naphthalen-2-ylsulfanyl)-3-oxocyclopentyl ester] | – | 3 | 50 | – | 26 | 23 | 32 | – | –
13 | CC(=O)Nc1ccc(S[C@H]2CC(=O)C[C@@H]2O[Si](C)(C)C(C)(C)C)cc1 [CTM-81] | – | – | – | 50 | 28 | 17 | 31 | 1 | 181
14 | COC(=O)CS[C@H]1CC(=O)C[C@@H]1O[Si](C)(C)C(C)(C)C [CTM-87] | – | – | – | 50 | 48 | 38 | 52 | 4 | 260
15 | COC(=O)[C@H](CSC1CC(=O)C[C@@H]1O[Si](C)(C)C(C)(C)C)NC(=O)OC(C)(C)C (some centres unmarked) [CTM-36] | inhibitors of NF-κB | – | – | >500 | – | – | – | 4 | –
16 | CC(=O)N[C@@H](CS[C@H]1CC(=O)C[C@@H]1O[Si](C)(C)C(C)(C)C)C(=O)OC(C)(C)C [CTM-106] | – | – | – | 50 | 26 | 28 | > 100 | 4 | 536
17 | CC(=O)NCCS[C@H]1CC(=O)C[C@@H]1O[Si](C)(C)C(C)(C)C [CTM-83] | – | – | – | 50 | 27 | 27 | 47 | 3 | > 800
18 | CC(C)(C)C(=O)OC1[C@@H](Sc2ccc3ccccc3c2)CC(=O)C1(C)C (stereo in doubt) [CTM-191, 2,2-dimethylpropionic acid (1R,5S)-2,2-dimethyl-5-(naphthalen-2-ylsulfanyl)-3-oxocyclopentyl ester] | – | 4 | 50 | – | 18 | 24 | 25 | – | –
19 | COC(=O)CCS[C@H]1CC(=O)C[C@@H]1O[Si](C)(C)C(C)(C)C [CTM-88] | – | – | – | 50 | 60 | 45 | 65 | 10 | 477
